Patent US10676476B2, “Small-molecule HSP90 inhibitors” (Sloan-Kettering Institute for Cancer Research, priority 2005, dated 2020)

Columns and labels:
[1] = test system: SKBr3 breast cancer cells; test: Growth inhibition, sulforhodamine B assay; assay type: cell-based, human; details: for IC50: growth inhibition, 72 h, average of 3 measurements; for Inhibition of growth in SKBr3 cells: result in words
Experimental: (§1) Cell Culture. The human breast cancer cell lines SKBr3 and MDA-MB-468 were a gift from Dr. Neal Rosen (MSKCC). Cells were maintained in 1:1 mixture of DME:F12 supplemented with 2 mM glutamine, 50 units/mL penicillin, 50 […] and 10% heat inactivated fetal bovine serum (Gemini Bioproducts#100-10b) and incubated at 37° C., 5% CO2. Growth assays. Growth inhibition studies were performed using the sulforhodamine B assay as previously described.^29 In summary, experimental cultures were plated in microtiter plates (Nunc#167008). One column of wells was left without cells to serve as the blank control. Cells were allowed to attach overnight. The following day, growth medium having either drug or DMSO at twice the desired initial concentration was added to the plate in triplicate and was serially diluted at a 1:1 ratio in the microtiter plate. After 72 h of growth, the cell number in treated versus control wells was estimated after treatment with 50% trichloroacetic acid and staining with 0.4% sulforhodamine B in 1% acetic acid. […] Normal human renal proximal tubular epithelial (RPTEC) cells were purchased pre-seeded in 96-well plates (Clonetics, CC-3190). Upon receipt, cells were placed in a humidified incubator at 37° C., 5% CO2 and allowed to equilibrate for 3 h. Media was removed by suction and replaced with fresh media provided by the manufacturer. Cells were then treated with either drugs or DMSO for 72 h and the IC50 values were determined as described above.

[2] = test system: MDA-MB-468 cells; test: Anti-mitotic assay (Tg-3 microtiter immunoassay); assay type: cell-based, human; details: MDA-MB-468 (Rb-defective) cells, 24 h
Experimental: Anti-Mitotic Assay. Black, clear-bottom microtiter 96-well plates (Corning Costar#3603) were used to accommodate experimental cultures. MDA-MB-468 cells were seeded in each well at 8,000 cells per well in growth medium (100 μL), and allowed to attach overnight at 37° C. and 5% CO2. Growth medium (100 μL) with drug or vehicle (DMSO) was gently added to the wells, and the plates were incubated at 37° C. and 5% CO2 for 24 h. Wells were washed with ice-cold TBST (2×200 μL). A house vacuum source attached to an eight-channel aspirator was used to remove the liquid from the 96-well plates. Ice-cold methanol (100 μL) was added to each well, and the plate was placed at 4° C. for 5 min. Methanol was removed by suction and plates were washed with ice-cold TBST (2×200 μL). Plates were further incubated with SuperBlock® blocking buffer (Pierce #37535) (200 μL) for 2 h at RT. The Tg-3 antibody (gift of Dr. Davies, Albert Einstein College of Medicine) diluted 1:200 in SuperBlock® was placed in each well (100 μL) except the control column that was treated with control antibody (Mouse IgM, NeoMarkers, NC-1030-P). After 72 h, wells were washed with ice-cold TBST (2×200 μL). […] Un-reacted antibody was removed by washing the plates with ice-cold TBST (3×200 μL) for 5 min on a shaker. The ECL™ Western Blotting Detection Reagents 1 and 2 in 1:1 mix (100 μL) was placed in each well and the plates were read immediately in an Analyst AD plate reader (Molecular Devices). Luminescence readings were imported into SOFTmax PROR 4.3.1. Anti-mitotic activity was defined as a concentration dependent increase in luminescence readings in compound-treated wells as compared to DMSO only treated wells.

[3] = test system: Hsp90 complexes found in normal heart tissue; test: Hsp90 competition assay, heart homogenate; assay type: binding, mouse; details: ratio of EC50 values
Experimental: (§4) When using cell lysates instead of recombinant protein, the assay measures binding to average. Hsp90 population found in cell specific complexes.
(§5) Hsp90 Competition Assay.Fluorescence polarization measurements were performed on an ANALYST® AD instrument (Molecular Devices, Sunnyvale, Calif.). […] The assay buffer (HFB) contained 20 mM HEPES (K) pH 7.3, 50 mM KCl, 5 mM MgCl2, 20 mM Na2MoO4, 0.01% NP40. Before each use, 0.1 mg/mL bovine gamma globulin (BGG) (Panvera Corporation, Madison, Wis.) and 2 mM DTT (Fisher Biotech, Fair Lawn, N.J.) were freshly added. […] Cell lysates were prepared rupturing cellular membranes by freezing at −70° C. and dissolving the cellular extract in HFB with added protease and phosphotase inhibitors. Organs were harvested from a healthy mouse and homogenized in HFB. Saturation curves were recorded in which GM-BODIPY (5 nM) was treated with increasing amounts of cellular lysates.

[4] = test system: Hsp90 complexes found in normal lung tissue; test: Hsp90 competition assay, lung homogenate; assay type: binding, mouse; details: ratio of EC50 values
Experimental: as §4, §5

[5] = test system: Her2 in SKBr3 cells; test: Her2 assay (microtiter immunoassay of Her2 degradation); assay type: cell-based, human; details: for IC50: Her2 degradation, SKBr3 cells, 24 h, average of 3 measurements; for Her2 degradation in SKBr3 cells: result in words
Experimental: Her2 Assay. SKBr3 cells were plated in black, clear-bottom microtiter plates (Corning#3603) at 3,000 cells/well in growth medium (100 μl) and allowed to attach for 24 h at 37° C. and 5% CO2. Growth medium (100 μl) with drug or vehicle (DMSO) was carefully added to the wells, and the plates were placed at 37° C. and 5% CO2. Following 24 h incubation with drugs, wells were washed with ice-cold Tris buffer saline (TBS) containing 0.1% Tween 20 (TBST) (200 μl). A house vacuum source attached to an eight-channel aspirator was used to remove the liquid from the plates. Further, methanol (100 μl at −20° C.) was added to each well, and the plate was placed at 4° C. for 10 min. Methanol was removed by washing with TBST (2×200 μl). After further incubation at RT for 2 h with SUPERBLOCK® R (Pierce 37535) (200 μl), anti-Her-2 (c-erbB-2) antibody (Zymed Laboratories#28-004) (100 μl, 1:200 in SUPERBLOCK® R) was placed in each well. The plate was incubated overnight at 4° C. For control wells, 1:200 dilution of a normal rabbit IgG (Santa Cruz#SC-2027) in SUPERBLOCK® R was used. Each well was washed with TBST (2×200 μl) and incubated at RT for 2 h with an anti-rabbit HRP-linked antibody (Sigma, A-0545) (100 μl, 1:2000 in SuperBlockR). Unreacted antibody was removed by washing with TBST (3×200 μl), and the ECL™ Western blotting reagent (Amersham #RPN2106) (100 μL) was added. The plate was immediately read in an Analyst AD plate reader (Molecular Devices). Each well was scanned for 0.1 s. Readings from wells containing only control IgG and the corresponding HRP-linked secondary antibody were set as background and deducted from all measured values.

[6] = test system: Hsp90 complexes found in normal brain tissue; test: Hsp90 competition assay, brain homogenate; assay type: binding, mouse; details: ratio of EC50 values
Experimental: as §4, §5

[7] = test system: renal proximal tubular epithelial cells (RPTEC); test: Cytotoxicity against normal RPTEC cells; assay type: cell-based, human; details: ratio of growth IC50 values
Experimental: as §1, with “Cells were then treated with either drugs or DMSO for 72 h and the IC50 values were determined as described above.” left out

[8] = test system: small cell lung cancer cell lines; test: Apoptosis and cell death in SCLC cell lines; assay type: cell-based; details: each of the SCLC cell lines
[9] = test system: Hsp90 from SKBr3 cells; test: Hsp90 competition assay, SKBr3 cell lysate; assay type: binding, human
Experimental: as §4, §5

[10] = Tumor and plasma concentration in MDA-MB-468 xenografted mice; assay type: in vivo; details: 24 hours after intraperitoneal injection
Experimental: (§2) Mice xenografted with MDA-MB-468 human breast cancer tumors were treated by intraperitoneal injection with Compound 5 at a dosage levels of 25, 50, 75, 100 and 150 mg/kg. The concentration of Compound 5 in the tumor 24 hours after administration was determined. […] Compound 5 was further tested for its effects on the pharmacodynamic marker Raf-1 kinase.

[11] = test system: Raf-1 kinase; test: Pharmacodynamic marker in MDA-MB-468 xenograft tumors; assay type: in vivo, mice
Experimental: as §2
Hsp90 stabilizes this kinase and maintains it in ready-to-be-activated conformation. Inhibition of Hsp90 leads to disruption of the complex and further ubiquitinylation and degradation of Raf-1 by the proteasome. Thus, Raf-1 degradation in tumors is a functional read-out of Hsp90 inhibition.

[12] = test system: cancer cells; test: Potency against cancer cells; assay type: cell-based
Experimental: (§3) Growth over 96 h was assessed.

[13] = Blood brain barrier penetration
[14] = test system: small cell lung tumors; test: Pharmacodynamics and anti-cancer activity in a model of small cell lung cancer; assay type: in vivo
[15] = test system: H69AR; test: Growth over 96 h, resistant SCLC line; assay type: cell-based; details: SCLC cell line resistant to adriamycin
Experimental: as §3

[16] = test system: SKI-Chen; test: Growth over 96 h, resistant SCLC line; assay type: cell-based, human; details: line from a patient who failed every conventional therapy
Experimental: as §3

[17] = test system: SCLC cells highly resistant to conventional chemotherapy; test: Growth inhibition and cell death, FIG. 8; assay type: cell-based; details: FIG. 8, growth over 96 h
Experimental: as §3

[18] = test system: MRC5 normal lung fibroblasts; test: Selectivity SKBr3 versus MRC5 normal cells; assay type: cell-based

9-(Pent-4-ynyl)-8-(2,4,5-trichloro-phenylsulfanyl)adenine [Example 2]
IC50 [1]: 48.4 ± 2.5 µM
IC50 ([1]; listed as Comp 2): 1.8 ± 0.2 µM
Inhibition of growth in SKBr3 cells [1]: inhibition of growth
Anti-mitotic [2]: No
Anti-mitotic ([2]; listed as Comp 2): exhibited anti-mitotic activity and Yes
Heart/SKBr3 [3]: 590
Lung/SKBr3 [4]: 2400
IC50 [5]: 58 ± 1.4 µM
IC50 ([5]; listed as Comp 2): 1.3 ± 0.4 µM
Her2 degradation in SKBr3 cells [5]: induced Her2 degradation

C#CCCCn1c(Sc2cc3c(cc2Br)OCO3)nc2c(N)ncnc21 [Example 1, 9-(Pent-4-ynyl)-8-(6-bromo-benzo[1,3]dioxol-5-ylsulfanyl)adenine]
Inhibition of growth in SKBr3 cells [1]: inhibition of growth
Brain/SKBr3 [6]: 2000
RPTEC/SKBr3 [7]: 20.5
Anti-mitotic [2]: exhibited anti-mitotic activity and Yes
Induction of apoptosis in SCLC cell lines [8]: induced apoptosis
Her2 degradation in SKBr3 cells [5]: induced Her2 degradation
Selectivity for tumor cells as opposed to normal heart, brain or lung tissue [9]: very high selectivity

COc1cc(Sc2nc3c(N)ncnc3n2CCOC(C)C)c(Cl)cc1Cl [Example 3, 9-(2-Isopropoxy-ethyl)-8-(2,4-dichloro-5-methoxy-benzenesulfanyl)adenine]
Anti-mitotic [2]: No

Nc1ncnc2nc(Sc3cc(Cl)c(Cl)cc3Cl)[nH]c12 [Example 4, 8-(2,4,5-Trichloro-phenylsulfanyl)adenine]
Anti-mitotic [2]: Yes

CC(C)NCCCn1c(Sc2cc3c(cc2Br)OCO3)nc2c(N)ncnc21 [Example 5, 8-(6-Bromo-benzo[1,3]dioxol-5-ylsulfanyl)-9-(3-isopropylamino-propyl)adenine]
Anti-mitotic [2]: Yes
Concentration in plasma [10]: could not be detected
Raf-1 protein levels in tumor ([11]; all dosage levels): substantial decrease in Raf-1 levels
Expression of PD kinase ([11]; protein unaffected by Hsp90 inhibitors): no change in expression

C#CCCCn1c(Cc2cc3c(cc2Br)OCO3)nc2c(N)nc(F)nc21 [Example 6, 2-Fluoro-8-(6-bromo-benzo[1,3]dioxol-5-ylmethyl)-9-(pent-4-ynyl)adenine]
Anti-mitotic [2]: Yes

C#CCCCn1c(Cc2cc3c(cc2Cl)OCO3)nc2c(N)nc(F)nc21 [Example 7, 2-Fluoro-8-(6-chloro-benzo[1,3]dioxol-5-ylmethyl)-9-(pent-4-ynyl)adenine]
Anti-mitotic [2]: Yes

CC(C)NCCCn1c(Cc2cc3c(cc2I)OCO3)nc2c(N)nc(F)nc21 [Example 8, 2-Fluoro-8-(6-iodo-benzo[1,3]dioxol-5-ylmethyl)-9-(3-isopropylamino-propyl) adenine]
Anti-mitotic [2]: Yes
Potency against cancer cells [12]: low nanomolar potency

CC(C)NCCCn1c(Sc2cc3c(cc2I)OCO3)nc2c(N)ncnc21 [Example 9, 8-(6-Iodo-benzo[1,3]dioxol-5-ylsulfanyl)-9-(3-isopropylamino-propyl)adenine]
IC50 ([1]; Homo sapiens, SK-BR-3): 0.09 ± 0.002 µM
Blood brain barrier penetration [13]: ability to cross the blood brain barrier
Tumor growth inhibition ([14]; comparable to 17AAG): efficiently inhibited the growth of this tumor
Apoptosis of the tumor (PARP cleavage) ([14]; in vivo): induces significant apoptosis of the tumor
Duration of downregulation of Hsp90 client proteins in tumor ([14]; in vivo): more than 36 h
Toxicity to the host ([14]; in vivo): without toxicity to the host
Raf-1 and Akt in tumor ([14]; one administered dose): efficiently degraded or inactivated
Activity in H69AR [15]: retains its activity
Anti-mitotic [2]: Yes
Heart/SKBr3 [3]: 140
Activity in SKI-Chen [16]: retains its activity
Lung/SKBr3 [4]: 48
IC50 ([5]; Homo sapiens, SK-BR-3): 0.1 ± 0.01 µM
Effective concentration lower than PU24FC1 [17]: about 20 times
Potency against cancer cells [12]: low nanomolar potency

C#CCCCn1c(Sc2cc3c(cc2I)OCO3)nc2c(N)ncnc21 [Example 10, 8-(6-Iodo-benzo[1,3]dioxol-5-ylsulfanyl)-9-(pent-4-ynyl)adenine]
Selectivity between SKBr3 cells and MRC5 normal lung fibroblasts [18]: Selectivity was also observed
Heart/SKBr3 [3]: 370

C#CCCCn1c(Cc2cc3c(cc2I)OCO3)nc2c(N)nc(F)nc21 [Example 11, 2-Fluoro-8-(6-iodo-benzo[1,3]dioxol-5-ylmethyl)-9-(pent-4-ynyl)adenine]
Anti-mitotic [2]: Yes

C#CCCCn1c(Cc2cc(OC)c(OC)cc2I)nc2c(N)nc(F)nc21 [Example 12, 2-Fluoro-8-(2-iodo-4,5-dimethoxy-benzyl)-9-(pent-4-ynyl)adenine]
Anti-mitotic [2]: No

C#CCCCn1c(Cc2cc(OC)c(OC)cc2Br)nc2c(N)nc(F)nc21 [Example 13, 2-Fluoro-8-(2-bromo-4,5-dimethoxy-benzyl)-9-(pent-4-ynyl)adenine]
Anti-mitotic [2]: No

C#CCCCn1c(Cc2cc(OC)c(OC)cc2Cl)nc2c(N)nc(F)nc21 [Example 14, 2-Fluoro-8-(2-chloro-4,5-dimethoxy-benzyl)-9-(pent-4-ynyl)adenine]
Anti-mitotic [2]: No
